# Measurements published in patent US6608087B1, “Gyrase inhibitors and uses thereof” (Vertex Pharmaceuticals Incorporated, priority 2000, dated 2003).
# Target: E. coli gyrase A2B2 (Escherichia coli, UniProt P0AES6)
# Test: ATPase assay, E. coli gyrase A2B2 (coupled pyruvate kinase/lactate dehydrogenase)
# Format: biochemical
# Settings: 30° C., 0.9 mM ATP, 40 nM enzyme, read-out: Activity against E. coli gyrase (Ki)
# Method: The ATP hydrolysis activity of DNA gyrase was measured by coupling the production of ADP through pyruvate kinase/lactate dehydrogenase to the oxidation of NADH. This method has been described previously. (Tamura and Gellert, 1990, J. Biol. Chem.265, 21342-21349).
# ATPase assays were carried out at 30° C. in buffered solutions containing 100 mM TRIS pH 7.6, 1.5 mM MgCl2, and 150 mM KCl. The coupling system contained (final concentrations) 2.5 mM phosphoenol pyruvate, 200 μM nicotinamide adenine dinucleotide (NADH), 1 mM DTT, 30 ug/ml pyruvate kinase, and 10 ug/ml lactate dehydrogenase. 40 nM enzyme (374 kDa Gyr A2B2 from E coli) and a DMSO solution of the inhibitor to a final concentration of 4% were added and the reaction mixture allowed to incubate for 10 minutes at 30° C. The reaction was then started by the addition of ATP to a final concentration of 0.9 mM and the rate of NADH disappearance at 340 nm, measured over the course of 10 minutes. Ki values were determined from rate versus. inhibitor concentration profiles.
row,SMILES,Ki [nM]
1,COC(=O)NCc1cc(-c2sc(-c3ccccc3)nc2N2CCN(Cc3ccccc3)CC2)n[nH]1 [IA-18],500 to 1500
2,COC(=O)NCc1cc(-c2sc(-c3ccccc3)nc2N2CCCCC2C)n[nH]1 (centres unmarked) [IA-30],< 500
3,COC(=O)NCc1cc(-c2sc(-c3ccccc3)nc2N2CCNCC2)n[nH]1 [IA-37],> 1500
4,CC(C)OC(=O)NCc1cc(-c2sc(-c3ccccc3)nc2-c2ccccc2)n[nH]1 [IA-46],> 1500
5,CCOC(=O)c1cc(-c2sc(-c3ccccc3)nc2CN2CCOCC2)n[nH]1 [IA-66],> 1500
6,CCOC(=O)c1cc(-c2sc(-c3ccccc3)nc2CN2CCNCC2)n[nH]1 [IA-67],500 to 1500
7,CCOC(=O)c1cc(-c2sc(-c3ccccc3)nc2CN(CC)CC)n[nH]1 [IA-69],> 1500
8,"CCOC(=O)c1cc(-c2cnn(-c3cccc(Cl)c3)c2C)n[nH]1 [ID-28, 1′-(3-Chloro-phenyl)-5′-methyl-1H,1′H-[3,4′]bipyrazolyl-5-carboxylic Acid Ethyl Ester]",> 1500
